Laboratory results as given in patent US12391721B2, “Crystal forms of beta-nicotinamide mononucleotide” (Metro International Biotech, LLC, priority 2015, dated 2025).

Columns and labels:
Format in all cases: physicochemical
[1] = Three month stability and forced degradation study: HPLC purity of stored solids; conditions: for Known Impurity* (%) (nicotinamide, RRT = 1.73 min) / Purity (%): HPLC
Procedure: Purity analysis was performed on an Agilent HP1100 series system equipped with a diode array detector and using ChemStation software vB.04.03 using the method detailed below in Table 1.
(§1) […] The samples were prepared in duplicate with an offset of 2 weeks. Each replicate was stored in a different container.
(§2) Replicate 1 was charged in an open HPLC vial that was placed in a sealed scintillation vial containing a saturated solution of the relevant inorganic salt (Table 2). These samples were analysed by HPLC, 1H NMR, XRPD and Polarized Light Microscopy (PLM) at 4, 8, and 12 week time points.
(§3) Replicate 2 was stored in sealed box with a recipient containing a saturated solution of the relevant inorganic salt (Table 2). These samples were analysed by HPLC at 2, 6, 10 and 12 week time points. Samples at 25° C./0% RH were stored in a sealed box containing a desiccant agent (P2O5).

[2] = Dynamic vapor sorption (DVS) of amorphous NMN; conditions: FIG. 7
Excerpt: When a sample of amorphous NMN is exposed to atmospheric humidity, the sample goes through phases. […] The amorphous sample is hygroscopic until it deliquesces and starts crystallizing.

[3] = Three month stability and forced degradation study: visual observations of stored solids
Procedure: as §1, §2, §3

[4] = Three month stability and forced degradation study: particle morphology by polarised light microscopy (PLM); conditions: Replicate 1
Procedure: Samples were studied on a Leica LM/DM polarised light microscope with a digital video camera for image capture. A small amount of each sample was placed on a glass slide, 15 mounted in immersion oil and covered with a glass slip, the individual particles being separated as well as possible. The sample was viewed with appropriate magnification and partially polarised light, coupled to a λ false-color filter.
as §1, §2

[5] = Three month stability and forced degradation study: solid form by XRPD after storage; conditions: for XRPD: Replicate 1
Procedure: X-Ray Powder Diffraction patterns were collected on a Bruker D8 diffractometer using Cu Kα radiation (40 kV, 40 mA), θ-2θ goniometer, and divergence of V4 and receiving slits, a Ge monochromator and a Lynxeye detector. The instrument is performance checked using a certified Corundum standard (NIST 1976). The software used for data collection was Diffrac Plus XRD Commander v2.6.1 and the data were analysed and presented using Diffrac Plus EVA v15.0.0.0.
Samples were run under ambient conditions as flat plate specimens using powder as received. The sample was gently packed into a cavity cut into polished, zero-background (510) silicon wafer. The sample was rotated in its own plane during analysis. The details of the data collection are: • Angular range: 2 to 42° 2θ • Step size: 0.05° 2θ • Collection time: 0.5 s/step HPLC
as §1, §2

[6] = solid stored 25° C., 0% RH, 4 weeks, Replicate 1
[7] = solid stored 25° C., 0% RH, 8 weeks, Replicate 1
[8] = solid stored 25° C., 0% RH, 12 weeks, Replicate 1
[9] = solid stored 25° C., 0% RH, 12 weeks, Replicate 1, listed as Amorphous material
[10] = solid stored 25° C., 60% RH, 2 weeks, Replicate 2
[11] = solid stored 25° C., 60% RH, 4 weeks, Replicate 1
[12] = solid stored 25° C., 60% RH, 6 weeks, Replicate 2
[13] = solid stored 25° C., 60% RH, 8 weeks, Replicate 1
[14] = solid stored 25° C., 60% RH, 10 weeks, Replicate 2
[15] = solid stored 25° C., 60% RH, 12 weeks, Replicate 1
[16] = solid stored 25° C., 60% RH, 12 weeks, Replicate 2
[17] = solid stored 25° C., 97% RH, 2 weeks, Replicate 2
[18] = solid stored 25° C., 97% RH, 4 weeks, Replicate 1
[19] = solid stored 25° C., 97% RH, 6 weeks, Replicate 2
[20] = solid stored 25° C., 97% RH, 10 weeks, Replicate 2
[21] = solid stored 25° C., 97% RH, 12 weeks, Replicate 2
[22] = solid stored 40° C., 75% RH, 2 weeks, Replicate 2
[23] = solid stored 40° C., 75% RH, 4 weeks, Replicate 1
[24] = solid stored 40° C., 75% RH, 6 weeks, Replicate 2
[25] = solid stored 40° C., 75% RH, 8 weeks, Replicate 1
[26] = solid stored 40° C., 75% RH, 10 weeks, Replicate 2
[27] = solid stored 40° C., 75% RH, 12 weeks, Replicate 2
[28] = solid stored 40° C., 75% RH, 12 weeks, Replicate 2, listed as amorphous material
[29] = t = 0, baseline of the stability study, listed as J07086
[30] = solid stored 25° C., 0% RH, 4 weeks
[31] = solid stored 25° C., 0% RH, 8 weeks
[32] = solid stored 25° C., 0% RH, 12 weeks
[33] = solid stored 25° C., 60% RH, 4 weeks
[34] = solid stored 25° C., 60% RH, 12 weeks
[35] = solid stored 25° C., 97% RH, 4 weeks
[36] = solid stored 40° C., 75% RH, 4 weeks

Known Impurity* (%) (nicotinamide, RRT = 1.73 min) [1, 6]: 1.81%
Purity (%) [1, 6]: 96.9%
Known Impurity* (%) (nicotinamide, RRT = 1.73 min) [1, 7]: 2.44%
Purity (%) [1, 7]: 95.8%
Known Impurity* (%) (nicotinamide, RRT = 1.73 min) [1, 8]: 2.81%
Purity (%) [1, 8]: 95.0%
Known Impurity* (%) (nicotinamide, RRT = 1.73 min) [1, 9]: 2.8%
Purity (%) [1, 9]: 95.5%
Known Impurity* (%) (nicotinamide, RRT = 1.73 min) [1, 10]: 2.14%
Purity (%) [1, 10]: 97.4%
Known Impurity* (%) (nicotinamide, RRT = 1.73 min) [1, 11]: 2.13%
Purity (%) [1, 11]: 96.9%
Known Impurity* (%) (nicotinamide, RRT = 1.73 min) [1, 12]: 2.06%
Purity (%) [1, 12]: 97.4%
Known Impurity* (%) (nicotinamide, RRT = 1.73 min) [1, 13]: 3.46%
Purity (%) [1, 13]: 95.2%
Known Impurity* (%) (nicotinamide, RRT = 1.73 min) [1, 14]: 2.92%
Purity (%) [1, 14]: 96.0%
Known Impurity* (%) (nicotinamide, RRT = 1.73 min) [1, 15]: 3.46%
Purity (%) [1, 15]: 95.7%
Known Impurity* (%) (nicotinamide, RRT = 1.73 min) [1, 16]: 2.32%
Purity (%) [1, 16]: 96.2%
Known Impurity* (%) (nicotinamide, RRT = 1.73 min) [1, 17]: 1.79%
Purity (%) [1, 17]: 97.8%
Known Impurity* (%) (nicotinamide, RRT = 1.73 min) [1, 18]: 2.44%
Purity (%) [1, 18]: 97.1%
Known Impurity* (%) (nicotinamide, RRT = 1.73 min) [1, 19]: 3.01%
Purity (%) [1, 19]: 96.5%
Known Impurity* (%) (nicotinamide, RRT = 1.73 min) [1, 20]: 4.39%
Purity (%) [1, 20]: 94.9%
Known Impurity* (%) (nicotinamide, RRT = 1.73 min) [1, 21]: 7.02%
Purity (%) [1, 21]: 91.5%
Known Impurity* (%) (nicotinamide, RRT = 1.73 min) [1, 22]: 4.61%
Purity (%) [1, 22]: 94.6%
Known Impurity* (%) (nicotinamide, RRT = 1.73 min) [1, 23]: 6.70%
Purity (%) [1, 23]: 91.3%
Known Impurity* (%) (nicotinamide, RRT = 1.73 min) [1, 24]: 8.22%
Purity (%) [1, 24]: 88.0%
Known Impurity* (%) (nicotinamide, RRT = 1.73 min) [1, 25]: 14.23%
Purity (%) [1, 25]: 76.9%
Known Impurity* (%) (nicotinamide, RRT = 1.73 min) [1, 26]: 16.18%
Purity (%) [1, 26]: 75.9%
Known Impurity* (%) (nicotinamide, RRT = 1.73 min) [1, 27]: 20.60%
Purity (%) [1, 27]: ~67.5^$ %
Known Impurity* (%) (nicotinamide, RRT = 1.73 min) [1, 28]: 20.6%
Purity (%) [1, 28]: 67.5%
HPLC purity profile, Area % of main peak (RRT 1.00) [1, 29]: 98.56 Area %
HPLC purity profile, Area % of peak at RRT 1.76 / 1.74 (nicotinamide) [1, 29]: 0.87 Area %
Purity ([1]; time 0, listed as Amorphous material): 98.2%
reversible mass pick up (DVS) ([2]; once crystallised, double cycle): up to 9 % w/w
behaviour on exposure to atmospheric humidity (DVS change in mass plot) ([2]; until it deliquesces and starts crystallizing): hygroscopic
Observations [3, 6]: white solid
Observations [3, 7]: white solid
Observations [3, 8]: white solid
Observations [3, 10]: light yellow solid,
Observations [3, 11]: brown solid
Observations [3, 12]: light brown,
Observations [3, 13]: brown solid,
Observations [3, 14]: light brown,
Observations [3, 15]: brown solid,
Observations [3, 16]: light brown,
Observations [3, 17]: white compacted
Observations [3, 18]: white solid,
Observations [3, 19]: white solid,
Observations ([3]; solid stored 25° C., 97% RH, 8 weeks, Replicate 1): partially
Observations [3, 20]: white solid,
Observations ([3]; solid stored 25° C., 97% RH, 12 weeks, Replicate 1): deliquesced.
Observations [3, 21]: white solid,
Observations [3, 22]: brown compacted
Observations [3, 23]: brown
Observations [3, 24]: dark brown solid
Observations [3, 25]: brown
Observations [3, 26]: black solid
Observations ([3]; solid stored 40° C., 75% RH, 12 weeks, Replicate 1): black solid,
Observations [3, 27]: black solid,
PLM [4, 30]: Unchanged
PLM [4, 31]: Unchanged
PLM [4, 32]: Unchanged
PLM [4, 33]: acicular
PLM [4, 34]: acicular
PLM [4, 35]: acicular
PLM [4, 36]: acicular
solid form and particle morphology after storage ([5]; 12 weeks at 25° C., 0% RH): remained unchanged
XRPD [5, 30]: Unchanged
XRPD [5, 31]: Unchanged
XRPD [5, 32]: Unchanged
XRPD [5, 33]: Form 1
XRPD ([5]; solid stored 25° C., 60% RH, 8 weeks): Form 1
XRPD [5, 34]: Form 1
XRPD [5, 35]: Form 1
XRPD [5, 36]: Form 1
XRPD ([5]; solid stored 40° C., 75% RH, 8 weeks): Form 1
XRPD ([5]; solid stored 40° C., 75% RH, 12 weeks): Form 1
solid form on storage under humidity ([5]; stored under 25% or greater relative humidity, gives Form 1 with acicular morphology): crystallized
Compound: NC(=O)c1ccc[n+]([C@@H]2O[C@H](COP(=O)([O-])O)[C@@H](O)[C@H]2O)c1 [Form J07087, β-nicotinamide mononucleotide, reference compound]
